Measured values taken from US20260152533A1, “COMBINATION INHIBITORS FOR TREATING FIBROSIS” (Memorial Sloan-Kettering Cancer Center, priority 2021, published 2026).

Key:
Format in all cases: cell-based, mouse
[1] = test system: pyruvate carboxylase (PC); assay: Stable isotope tracing in NIH-3T3 cells (surrogate for PC activity)
Experimental: Cells were plated in six-well cell culture plates at a concentration aimed to reach 0.5-1×10^6 cells at the time of harvest. For quantification of relative metabolite abundance, cells were cultured with glutamine-free DMEM containing different concentrations of L-glutamine and supplemented with 10% dialyzed FBS and in some experiments were treated with TGFβ for 48 hours. For the [U-^13C]and [3,4-^13C]glucose tracing experiments, cells were cultured as above, and in the last 8 hours media was replaced with DMEM without D-glucose and L-glutamine supplemented with 2 mM or 0.2 mM L-glutamine and 10 mM [U-^13C]or [3,4-^13C]D-glucose (Cambridge Isotope Laboratories) and 10% dialyzed FBS. For the [U-^13C]and [1-^13C]lactate tracing experiments, cells were cultured in 2 or 0.2 mM L-glutamine, 10 or 1 mM D-glucose in the presence or absence of 10 mM sodium lactate, and in the last 8 hours media was replaced with DMEM without D-glucose and L-glutamine supplemented with 2 mM or 0.2 mM L-glutamine, 10 or 1 mM D-glucose, 10 mM [U-^13C]or [1-^13C]sodium lactate (Cambridge Isotope Laboratories) and 10% dialyzed FBS. For relative quantification of metabolites by gas chromatography-mass spectroscopy (GC-MS), cells were washed briefly with PBS, which was then fully aspirated and metabolism was quenched by immediately adding 1 mL of 80:20 methanol:water stored at −80° C. containing 20 μM deuterated 2-hydroxyglutarate (d5-2HG) as an internal standard. For stable isotope tracing experiments, metabolism was quenched without the PBS washing step by adding 1 mL of 80:20 methanol:water as above. After overnight incubation at −80° C., the resulting extracts were scraped on dry ice, transferred into a 1.5 mL centrifuge tube, and centrifuged at 20,000 g for 20 minutes at 4° C. The supernatants were collected in clean tubes and dried in a vacuum evaporator (Genevac EZ-2 Elite) for 2 hours.
For [U-^13C]glucose tracing into proteinogenic amino acids, cells were cultured in 10% Gln in the presence or absence of TGFβ for 48 hours. In the last 24 hours, the media including all treatments was replaced with DMEM without L-glutamine and D-glucose and supplemented with 0.2 mM L-glutamine and 10 mM [U-^13C]D-glucose (Cambridge Isotope Laboratories) and 10% dialyzed FBS. For [U-^13C]lactate tracing into ECM, confluent cells were cultured in 10% Gln in the presence of 10 mM [U-^13C]sodium lactate for 6 days. The media was replaced every other day. ECM was decellularized as described above. Cells and ECM were washed with PBS, and proteins were precipitated with methanol:chloroform:water (1:1:1). The interphase was washed with methanol, and the dried pellet was subjected to acid hydrolysis with 6 N hydrochloric acid (HCl) and incubation at 95° C. for 16 hours. Samples were cooled to room temperature and centrifuged at 20,000 g for 10 minutes. The cleared supernatant was dried in a vacuum evaporator (Genevac EZ-2 Elite) for 2 hours, and abundance of aspartate, glutamate/glutamine or hydroxyproline isotopologues was measured by GC-MS as described below.
GC-MS measurements were performed as described before^11. Ions used for quantification of metabolite levels were as follows: d5-2HG m/z 354; citrate m/z 465; alpha-ketoglutarate m/z 304; succinate m/z 247; fumarate m/z 245; malate m/z 335; aspartate m/z 232; hydroxyproline m/z 332; proline m/z 216; glutamate m/z 246; glutamine m/z 245; lactate m/z 219; pyruvate m/z 174. All peaks were manually inspected and verified relative to known spectra for each metabolite. Peak identification and integration were done with MassHunter software vB.09 (Agilent Technologies). For relative quantification of cell samples, integrated peak areas were normalized to the internal standard d5-2HG and to the packed cell volume of each sample. Absolute quantification of hydroxyproline in tumor acid hydrolysates was performed against a standard curve of commercial trans-4-hydroxy-L-proline (Sigma). […]

[2] = test system: mammary fibroblasts (MFBs); assay: Collagen abundance in ECM derived from confluent MFBs; details: Gln 20% or lower, TGFβ (FIG. 8F)
Experimental: (§1) Culture plates were coated with 0.1% gelatin (Sigma) and treated with 1% glutaraldehyde (Sigma) and 1 M ethanolamine (Sigma). Confluent NIH-3T3 cells, MFBs or PSCs were grown for 6 days on coated plates in the presence of […] sodium ascorbate (Sigma) and treated as indicated, and the medium was replaced every other day. Plates were decellularized with 20 mM ammonium hydroxide/0.5% Triton-X 100 for 5 min on a rotating platform. Three times the volume of PBS was added, and ECM was equilibrated overnight at 4° C., followed by four additional PBS washes. For western blot, preheated sample buffer supplemented with 1 mM dithiothreitol (DTT) was added, ECM was scraped off and boiled, and proteins were separated by SDS-PAGE followed by immunoblotting. To measure collagen abundance, fibroblast-derived ECM was stained with the Picro Sirius Red Stain Kit (Abcam) according to the manufacturer's instructions. The stain was extracted with 0.1 M sodium hydroxide (NaOH) and optical density was measured at 550 nm using a microplate reader. Differences in cell number were controlled for by growing cells on separate plates under the same experimental conditions.

[3] = test system: pancreatic stellate cells (PSCs); assay: Collagen abundance in ECM derived from confluent PSCs; details: Gln 20% or lower, TGFβ (FIG. 8C)
Experimental: as §1

Substance: TGFβ: transforming growth-factor beta; TGFβ-1 purchased from Peprotech
- m+3 labelling of aspartate and glutamate/glutamine incorporated into cellular protein ([1]; 10% Gln, TGFβ 48 hours (FIG. 10I)): reduced
- m+2 labelling of citrate, indicative of PDH activity ([1]; TGFβ 48 hours (FIG. 3E)): increased
- m+3 and/or m+5 labelling of the metabolites analysed from [U-13C]Glc ([1]; high and low Gln medium, TGFβ 48 hours (FIG. 3E)): reduced
- low-Gln increase of m+1 labelling of aspartate, malate and citrate from [3,4-13C]Glc (PC activity) ([1]; low Gln, TGFβ 48 hours (FIGS. 3G and 3H)): suppressed
- collagen accumulation in the ECM [2]: could no longer stimulate
- collagen accumulation in the ECM [3]: could no longer stimulate
